Laboratory results from article PMC12015242, “A universal cannabinoid CB1 and CB2 receptor TR-FRET kinetic ligand-binding assay” (Frontiers in Pharmacology, 2025).
Where two headings read alike, the source gives them in different places.

Legend:
human CB2R (SNAP-CB2) [1] = target: T1, human CB2R (SNAP-CB2) (Homo sapiens, UniProt P34972); format: binding; conditions: 37°C, D77 900 nM, 15-min incubation
T1 construct: truncated CB1R (CB1R91-472) and full-length CB2R (CB2R1–360); 5HT3A signal peptide (N, cleaved yes); expressed in transfected cells; membranes
T1 sequence (P34972 whole entry, the tested form may be a part): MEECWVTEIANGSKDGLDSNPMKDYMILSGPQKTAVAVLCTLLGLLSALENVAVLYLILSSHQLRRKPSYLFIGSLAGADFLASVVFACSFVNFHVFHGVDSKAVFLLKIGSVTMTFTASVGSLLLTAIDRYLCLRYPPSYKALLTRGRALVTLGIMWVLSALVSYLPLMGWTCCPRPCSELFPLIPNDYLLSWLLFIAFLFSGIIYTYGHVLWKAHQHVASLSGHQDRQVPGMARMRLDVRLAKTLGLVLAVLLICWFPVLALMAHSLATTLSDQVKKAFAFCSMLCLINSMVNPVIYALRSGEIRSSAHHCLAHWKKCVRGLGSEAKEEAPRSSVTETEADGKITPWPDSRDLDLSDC

human CB2R (SNAP-CB2) [2] = target: T1, human CB2R (SNAP-CB2); format: binding
[3] = target: T2, human CB1R (SNAP-CB1R91–472) (Homo sapiens, UniProt P21554); assay: biochemical; format: binding
T2 construct: SNAP-tagged human CB1R or CB2R (SNAP-CB1R91–472 and SNAP-CB2); 5HT3A signal peptide (N, cleaved yes); expressed in transfected cells; membranes
T2 sequence (P21554 91-472): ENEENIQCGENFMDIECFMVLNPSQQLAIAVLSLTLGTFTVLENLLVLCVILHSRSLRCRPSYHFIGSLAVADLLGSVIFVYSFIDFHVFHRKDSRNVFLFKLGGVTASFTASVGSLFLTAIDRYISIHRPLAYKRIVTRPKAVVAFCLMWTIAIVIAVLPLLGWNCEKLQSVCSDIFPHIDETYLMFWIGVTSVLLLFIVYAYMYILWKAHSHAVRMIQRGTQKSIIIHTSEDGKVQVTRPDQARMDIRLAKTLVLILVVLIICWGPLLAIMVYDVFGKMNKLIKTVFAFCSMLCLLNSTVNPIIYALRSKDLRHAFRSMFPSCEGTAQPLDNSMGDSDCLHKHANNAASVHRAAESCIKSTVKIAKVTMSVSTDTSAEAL

[4] = target: T2, human CB1R (SNAP-CB1R91–472); assay: biochemical; format: binding; remark: listed apart in the source
full length CB1R WT = target: T3, full length CB1R WT (Homo sapiens, UniProt P21554); format: cell-based
T3 construct: 5HT3A signal peptide (N, cleaved yes); expressed in transfected cells; host or cells: T-REx-293 cells, tetracycline-induced, co-expressing the Gi-CASE biosensor
T3 sequence (P21554 whole entry): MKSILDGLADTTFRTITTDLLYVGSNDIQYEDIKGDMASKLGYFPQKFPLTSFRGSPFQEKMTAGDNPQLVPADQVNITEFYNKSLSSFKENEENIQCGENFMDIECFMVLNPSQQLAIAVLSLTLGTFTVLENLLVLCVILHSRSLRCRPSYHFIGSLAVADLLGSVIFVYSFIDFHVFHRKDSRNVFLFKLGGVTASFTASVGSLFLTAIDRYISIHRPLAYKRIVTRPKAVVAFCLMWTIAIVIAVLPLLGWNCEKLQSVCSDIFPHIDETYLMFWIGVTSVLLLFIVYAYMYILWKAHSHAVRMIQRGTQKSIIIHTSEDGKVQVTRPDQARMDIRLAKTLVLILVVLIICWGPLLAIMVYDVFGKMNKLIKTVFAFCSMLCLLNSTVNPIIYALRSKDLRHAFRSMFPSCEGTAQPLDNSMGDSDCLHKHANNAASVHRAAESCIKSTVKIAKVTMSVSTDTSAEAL

truncated CB1R91-472 = target: T4, truncated CB1R91-472 (Homo sapiens, UniProt P21554); format: cell-based
T4 construct: 5HT3A signal peptide (N, cleaved yes); expressed in transfected cells; host or cells: T-REx-293 cells, tetracycline-induced, co-expressing the Gi-CASE biosensor
T4 sequence (P21554 91-472): as the sequence (P21554 91-472) above

[5] = target: T2, human CB1R (SNAP-CB1R91–472); assay: Fluorescent ligand kinetic association binding, TR-FRET; conditions: 25°C; for time required for equilibrium: 15 min data collection period
Experimental: (§1) Experiments were performed using T-REx™-293 cell membranes expressing SNAP-tagged human CB1R or CB2R (SNAP-CB1R91–472 and SNAP-CB2). All the assays were conducted at either 25°C or 37°C in white 384-well OptiPlate plates (PerkinElmer) using the PHERAstar FSX microplate reader (BMG Labtech). The TRF 337/620/520 optic module was used for all assays, except for tracer MKA-136, where the TRF 337/570/490 module was utilized. Each well was excited with four laser flashes, and signal detection was performed with a 100-μs delay, integrating the signal over 700 μs.
(§2) Assay buffer comprised HBSS (Hanks’ Balanced Salt Solution) containing 5 mM HEPES, 0.5% BSA, and 0.02% Pluronic F-127 at pH 7.4. BSA (0.5%) and 0.02% Pluronic F-127 were used to minimize the non-specific binding of hydrophobic compounds to plasticware. Membranes were preincubated with 100 μM of GppNHp at 25 or 37°C for 15 min prior to addition to the plate using automatic injectors to ensure early time points could be measured with accuracy. GppNHp is a non-hydrolyzable GTP analog that will bind to G proteins and promote the dissociation of G proteins from the receptor. This way, we promote a single population of receptors (uncoupled from G proteins) avoiding a mixed population (i.e., uncoupled receptors (R) and receptors coupled to GDP bound G proteins, or G proteins alone (RG)). Adding GTP analogs is a common strategy used in GPCR binding studies to ensure a homogeneous single-state receptor population and simplify the analysis.
(§3) To control for potential plate position effects, plate layouts were varied between independent experiments. […] D77 stock was prepared at 100x the final concentration, and 0.4 μL was added to the wells. DMSO was held constant at 2% for all assay points, including the saturation and competition binding experiments, as reflected in the text.
(§4) Fluorescent ligand binding to CB1R and CB2R was assessed via HTRF detection, allowing the construction of association binding curves. For fluorescent ligand characterization, six increasing concentrations of fluorescent ligands were prepared, and cell membranes containing human CB1R or CB2R (1 μg/well) were added (at t = 0) in a total volume of 40 μL containing 2% DMSO at 25 or 37°C, with gentle agitation. […] As the wells are read sequentially, we restricted the readout of kinetic data of two ligands per experimental run to reduce the minimum reading cycle time.
(§5) D77 association data were fitted to a global fitting model using GraphPad Prism 9.2 to simultaneously calculate k on and k off using the following equation, where k obs equals the observed rate of association and L is the concentration of D77: kobs=L⋅kon+koff (3)

human CB2R (SNAP-CB2) [6] = target: T1, human CB2R (SNAP-CB2); assay: as above; conditions: 25°C; for time required for equilibrium: 15 min data collection period
Experimental: as §1, §2, §3, §4, §5

CB2R = conditions: 25°C, radioligand kinetic binding assay, ref Martella et al., 2017; cited from earlier work

Molecule: CCCCC/C=C\C/C=C\C/C=C\C/C=C\CCCC(=O)OC(CO)CO [2-AG]
- pK i (human CB2R (SNAP-CB2) [1]): 5.81 ± 0.03
- pKd (kinetic) (human CB2R (SNAP-CB2) [2]; 25°C): 6.36 ± 0.06
- pK d (kinetic) (human CB2R (SNAP-CB2) [2]; 37°C): 5.92 ± 0.04

Molecule: CCCCCCC(C)(C)c1cc(O)c2c(c1)OC(C)(C)[C@@H]1CC=C(CO)C[C@@H]21 [HU-210]
- pK i [3]: 7.99 ± 0.01
- pK d (kinetic) [4]: 8.65 ± 0.01
- pKd (kinetic) [4]: 8.64 ± 0.02
- Emax (%) (full length CB1R WT): 98.2 ± 6.8%
- pEC50 (full length CB1R WT): 8.97 ± 0.08
- Emax (%) (truncated CB1R91-472): 104.1 ± 4.7%
- pEC50 (truncated CB1R91-472): 9.15 ± 0.09

Molecule: CCCCCCC(C)(C)c1cc(OC)c([C@@H]2C=C(CO)[C@@H]3C[C@H]2C3(C)C)c(OC)c1 [HU-308]
- Ki [3]: 3.89 µM
- Kd ([4]; pK d (kinetic)): 4.47 µM
- Kd ([4]; pKd (kinetic)): 4.27 µM

Molecule: CCCCCCC(C)(C)c1cc(OC)c(C2C=C(CNC(=O)CCCCCCNc3ccc([N+](=O)[O-])c4nonc34)C3CC2C3(C)C)c(OC)c1 (stereo not shown) [MKA-115]
- time required for equilibrium [5]: > 15 min
- time required for equilibrium (human CB2R (SNAP-CB2) [6]): > 15 min

Molecule: CCCCCc1cc(O)c2c(c1)OC(C)(C)[C@@H]1CC=C(CNC(=O)CCCCCCNc3ccc([N+](=O)[O-])c4nonc34)C[C@@H]21 [MKA-136]
- time required for equilibrium [5]: > 15 min
- koff of fluorescent tracer (human CB2R (SNAP-CB2) [6]): 0.0035 ± 0.0012 s⁻¹
- pKd of fluorescent tracer (human CB2R (SNAP-CB2) [6]): 6.71 ± 0.41
- time required for equilibrium (human CB2R (SNAP-CB2) [6]): > 15 min

Molecule: CCCCCc1cc(O)c2c(c1)OC(C)(C)[C@@H]1CC=C(CNC(=O)CCCCC[n+]3cc(S(=O)(=O)[O-])ccc3/C=C/c3cc4ccc(N(CC)CC)cc4oc3=O)C[C@@H]21 [MKA-138]
- koff of fluorescent tracer [5]: 0.15 ± 0.03 s⁻¹
- pKd of fluorescent tracer [5]: 6.31 ± 0.05
- koff of fluorescent tracer (human CB2R (SNAP-CB2) [6]): 0.0153 ± 0.0015 s⁻¹
- pKd of fluorescent tracer (human CB2R (SNAP-CB2) [6]): 6.97 ± 0.08

Molecule: CCOC(=O)C(CC)(CCCSCCOCCNc1ccc([N+](=O)[O-])c2nonc12)NC(=O)c1ccc(C2CC2)c(Cc2ccc(F)cc2)n1 (stereo not shown) [NBD-690]
- koff of fluorescent tracer [5]: 0.128 ± 0.00733 s⁻¹
- pKd of fluorescent tracer [5]: 6.13 ± 0.09
- koff of fluorescent tracer (human CB2R (SNAP-CB2) [6]): 0.0162 ± 0.00083 s⁻¹
- pKd of fluorescent tracer (human CB2R (SNAP-CB2) [6]): 7.15 ± 0.02

Molecule: CCOC(=O)C(CC)(CCCSCCOCCOCCNc1ccc([N+](=O)[O-])c2nonc12)NC(=O)c1ccc(C2CC2)c(Cc2ccc(F)cc2)n1 (stereo not shown) [NBD-691]
- pKd of fluorescent tracer [5]: 6.04 ± 0.01
- koff of fluorescent tracer (human CB2R (SNAP-CB2) [6]): 0.0208 ± 0.001 s⁻¹
- pKd of fluorescent tracer (human CB2R (SNAP-CB2) [6]): 7.20 ± 0.01

Molecule: CCOC(=O)C(CC)(CCCSCCOCCOCCOCCNc1ccc([N+](=O)[O-])c2nonc12)NC(=O)c1ccc(C2CC2)c(Cc2ccc(F)cc2)n1 (stereo not shown) [NBD-694]
- pKd of fluorescent tracer [5]: 6.02 ± 0.01
- koff of fluorescent tracer (human CB2R (SNAP-CB2) [6]): 0.039 ± 0.00367 s⁻¹
- pKd of fluorescent tracer (human CB2R (SNAP-CB2) [6]): 6.97 ± 0.01

Molecule: CCOC(=O)C(CC)(CCCSCCOCCOCCOCCOCCNc1ccc([N+](=O)[O-])c2nonc12)NC(=O)c1ccc(C2CC2)c(Cc2ccc(F)cc2)n1 (stereo not shown) [NBD-698]
- koff of fluorescent tracer [5]: 0.166 ± 0.004 s⁻¹
- pKd of fluorescent tracer [5]: 6.22 ± 0.01
- koff of fluorescent tracer (human CB2R (SNAP-CB2) [6]): 0.0475 ± 0.00667 s⁻¹
- pKd of fluorescent tracer (human CB2R (SNAP-CB2) [6]): 6.93 ± 0.05

Molecule: SR 144528
- k off [4]: 0.0832 ± 0.0122 s⁻¹
- koff [4]: 0.0387 ± 0.00333 s⁻¹
- Residence time (Rt) (s) (human CB2R (SNAP-CB2) [2]; 25°C): 379 ± 27 s
- koff (human CB2R (SNAP-CB2) [2]; 25°C): 0.00267 ± 0.00017 s⁻¹
- Residence time (Rt) (min) (human CB2R (SNAP-CB2) [2]; 25°C, listed as SR 144,528): 6.3 min
- Residence time (Rt) (min) (human CB2R (SNAP-CB2) [2]; 25°C, listed as SR-144528): 6.32 ± 0.45 min
- k off (human CB2R (SNAP-CB2) [2]; 37°C): 0.0115 ± 0.0005 s⁻¹
- k on (human CB2R (SNAP-CB2) [2]; 37°C): (2.47 ± 0.16) × 10^8 M^−1 min^−1
- k on (text, shared exponent) (human CB2R (SNAP-CB2) [2]; 37°C): 4.17e+06 M⁻¹ s⁻¹
- Residence time (Rt) (min) (human CB2R (SNAP-CB2) [2]; 37°C, Rt = 1/k off): 1.46 ± 0.07 min
- Residence time (Rt) (s) (human CB2R (SNAP-CB2) [2]; 37°C, Rt = 1/k off): 87 ± 4 s
- residence time (CB2R): 8.7 min
